According to ChEMBL document CHEMBL1137148, “Synthesis, activity, metabolic stability, and pharmacokinetics of glucocorticoid receptor modulator-statin hybrids” (Bioorg Med Chem Lett, 2004):

Columns and labels:
[1] = target: T1, Glucocorticoid receptor (Rattus norvegicus, UniProt P06536); test: Inhibition of dexamethasone-induced glucocorticoid receptor mediated tyrosine aminotransferase in rat hepatocytes; type: functional, cell-based, Hepatocyte
T1 sequence (P06536 whole entry): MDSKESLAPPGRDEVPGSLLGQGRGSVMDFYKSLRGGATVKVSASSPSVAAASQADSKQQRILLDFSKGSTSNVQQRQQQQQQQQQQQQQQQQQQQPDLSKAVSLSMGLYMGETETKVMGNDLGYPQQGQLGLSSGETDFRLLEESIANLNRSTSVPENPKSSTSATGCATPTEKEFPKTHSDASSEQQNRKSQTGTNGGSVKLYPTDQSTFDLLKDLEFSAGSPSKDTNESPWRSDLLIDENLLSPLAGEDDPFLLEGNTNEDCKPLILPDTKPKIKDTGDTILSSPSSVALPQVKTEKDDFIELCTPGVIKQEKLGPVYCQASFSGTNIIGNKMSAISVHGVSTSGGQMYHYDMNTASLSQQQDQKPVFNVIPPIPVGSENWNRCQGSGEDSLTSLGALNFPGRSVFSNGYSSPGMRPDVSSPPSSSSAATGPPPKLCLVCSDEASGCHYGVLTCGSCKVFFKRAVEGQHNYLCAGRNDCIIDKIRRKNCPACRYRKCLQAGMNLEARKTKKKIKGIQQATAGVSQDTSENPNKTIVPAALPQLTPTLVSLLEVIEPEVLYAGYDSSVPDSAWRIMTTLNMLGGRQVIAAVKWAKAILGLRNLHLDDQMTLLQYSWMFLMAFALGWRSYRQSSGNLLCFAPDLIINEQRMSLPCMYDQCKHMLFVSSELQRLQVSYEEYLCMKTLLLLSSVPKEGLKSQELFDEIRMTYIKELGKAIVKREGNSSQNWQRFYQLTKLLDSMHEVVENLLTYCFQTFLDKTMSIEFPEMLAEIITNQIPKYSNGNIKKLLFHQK

[2] = target: T2, Glucocorticoid receptor (Homo sapiens, UniProt P04150); test: Inhibition of dexamethasone-induced glucocorticoid receptor mediated alkaline phosphatase activity; type: functional
T2 sequence (P04150 whole entry): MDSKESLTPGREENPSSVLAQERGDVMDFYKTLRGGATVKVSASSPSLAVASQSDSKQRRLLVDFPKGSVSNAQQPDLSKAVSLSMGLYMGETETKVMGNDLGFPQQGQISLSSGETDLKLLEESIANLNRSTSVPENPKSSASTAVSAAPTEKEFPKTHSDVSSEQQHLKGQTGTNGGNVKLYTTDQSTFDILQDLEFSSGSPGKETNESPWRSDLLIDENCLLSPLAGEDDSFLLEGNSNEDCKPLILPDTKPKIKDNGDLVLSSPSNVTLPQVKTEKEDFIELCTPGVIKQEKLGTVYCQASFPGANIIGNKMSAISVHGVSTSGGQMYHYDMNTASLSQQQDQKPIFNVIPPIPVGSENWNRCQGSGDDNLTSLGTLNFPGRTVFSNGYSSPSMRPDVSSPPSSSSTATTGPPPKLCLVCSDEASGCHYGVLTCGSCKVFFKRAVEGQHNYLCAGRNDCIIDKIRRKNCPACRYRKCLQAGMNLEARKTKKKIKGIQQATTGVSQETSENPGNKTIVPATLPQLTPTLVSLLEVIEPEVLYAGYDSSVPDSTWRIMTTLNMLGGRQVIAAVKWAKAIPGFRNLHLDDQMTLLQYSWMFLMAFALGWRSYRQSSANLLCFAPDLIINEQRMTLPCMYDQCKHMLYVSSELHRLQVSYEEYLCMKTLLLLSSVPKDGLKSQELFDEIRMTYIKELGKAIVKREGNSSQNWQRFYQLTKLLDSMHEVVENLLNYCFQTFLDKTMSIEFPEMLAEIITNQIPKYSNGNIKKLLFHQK

[3] = target: T2, Glucocorticoid receptor
[4] = target: T3, Progesterone receptor (Homo sapiens, UniProt P06401); test: Inhibition of human progesterone receptor
T3 sequence (P06401 whole entry): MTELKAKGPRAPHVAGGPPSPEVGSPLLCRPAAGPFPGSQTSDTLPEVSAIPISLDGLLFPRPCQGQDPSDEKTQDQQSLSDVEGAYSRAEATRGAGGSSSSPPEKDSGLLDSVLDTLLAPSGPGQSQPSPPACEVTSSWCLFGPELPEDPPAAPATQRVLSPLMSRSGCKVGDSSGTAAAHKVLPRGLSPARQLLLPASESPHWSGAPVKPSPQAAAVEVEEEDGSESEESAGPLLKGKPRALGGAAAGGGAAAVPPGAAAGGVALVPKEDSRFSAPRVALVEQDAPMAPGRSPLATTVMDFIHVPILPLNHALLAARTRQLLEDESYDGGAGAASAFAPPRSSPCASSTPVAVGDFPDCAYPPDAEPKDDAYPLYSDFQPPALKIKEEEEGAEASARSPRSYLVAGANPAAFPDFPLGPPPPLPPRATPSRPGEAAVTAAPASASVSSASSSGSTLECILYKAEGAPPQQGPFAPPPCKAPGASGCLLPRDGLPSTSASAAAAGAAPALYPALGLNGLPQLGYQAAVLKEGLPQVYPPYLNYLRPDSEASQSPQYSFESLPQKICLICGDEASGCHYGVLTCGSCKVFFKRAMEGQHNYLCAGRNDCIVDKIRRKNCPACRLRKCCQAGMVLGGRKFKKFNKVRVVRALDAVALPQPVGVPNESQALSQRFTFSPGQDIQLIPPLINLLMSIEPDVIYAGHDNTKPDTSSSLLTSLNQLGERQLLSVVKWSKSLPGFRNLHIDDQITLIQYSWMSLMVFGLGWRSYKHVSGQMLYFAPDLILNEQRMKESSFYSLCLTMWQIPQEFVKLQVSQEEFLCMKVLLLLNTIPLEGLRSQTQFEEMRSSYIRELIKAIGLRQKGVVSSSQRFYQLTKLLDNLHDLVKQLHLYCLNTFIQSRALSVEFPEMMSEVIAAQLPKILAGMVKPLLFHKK

Row | SMILES | IC50 [1] [nM] | IC50 [2] [nM] | IC50 [3] [nM] | IC50 [4] [nM]
1 | CC#C[C@]1(O)CC[C@H]2[C@@H]3CCC4=CC(=O)CCC4=C3[C@@H](c3ccc(N(C)C[C@@H](O)C[C@@H](O)CC(=O)O)cc3)C[C@@]21C | 130 | 18 | 6.8 | 32
2 | CC#C[C@]1(O)CC[C@H]2[C@@H]3CCC4=CC(=O)CCC4=C3[C@@H](c3ccc(N(C)C[C@@H]4C[C@@H](O)CC(=O)O4)cc3)C[C@@]21C | 140 | 23 | 2.3 | 3.8
3 | Cc1c(NS(C)(=O)=O)cccc1N(Cc1ccccc1)Cc1ccc(Oc2ccc(OC[C@@H]3C[C@@H](O)CC(=O)O3)cc2)cc1 | > 30000 | 440 | 2.1 | –
4 | CC#C[C@]1(O)CC[C@H]2[C@@H]3CCC4=CC(=O)CCC4=C3[C@@H](c3ccc(N(C)C[C@@H](O)CC(=O)O)cc3)C[C@@]21C | 220 | 76 | 37 | 200
5 | CC#C[C@]1(O)CC[C@H]2[C@@H]3CCC4=CC(=O)CCC4=C3[C@@H](c3ccc(OC[C@@H](O)CC(O)CC(=O)O)cc3)C[C@@]21C (single isomer, unassigned) | 560 | 2900 | 9.2 | 47

Next, values leading:

Row | IC50 [1] [nM] | IC50 [2] [nM] | IC50 [3] [nM] | IC50 [4] [nM] | SMILES
6 | > 30000 | – | – | – | Cc1c(NS(C)(=O)=O)cccc1N(Cc1ccc(Oc2ccccc2)cc1)Cc1ccc(F)cc1F
7 | > 30000 | 300 | 2.1 | – | Cc1c(NS(C)(=O)=O)cccc1N(Cc1ccccc1)Cc1ccc(Oc2ccc(OC[C@@H](O)C[C@@H](O)CC(=O)O)cc2)cc1
8 | > 30000 | 760 | 15 | – | Cc1c(NS(C)(=O)=O)cccc1N(Cc1ccc(Oc2cccc(OC[C@@H](O)C[C@@H](O)CC(=O)O)c2)cc1)Cc1ccc(F)cc1F
9 | > 30000 | 670 | 25 | – | Cc1c(NS(C)(=O)=O)cccc1N(Cc1ccc(Oc2cccc(OC[C@@H]3C[C@@H](O)CC(=O)O3)c2)cc1)Cc1ccc(F)cc1F
